Source: patent publication US20070021351A1, “Liver/plasma concentration ratio for dosing hepatitis C virus protease inhibitor” (Schering Corporation, priority 2005, published 2007)

How the values were obtained:
[1] = tested on: HCV; assay: Suppression of virus in serum after about two weeks of administration; format: in vivo; settings: threshold of detectability
[2] = tested on: HCV-RNA viral load (genotype 1); assay: Example 3: pharmacodynamics, effect on HCV-RNA viral load; format: in vivo; settings: 400 mg TID
Description: Multiple escalating doses of compound of Formula Ia were administered for 14 days to HCV positive subjects who were genotype 1 Interferon-a (with or without ribavirin) non responders. In a randomized, placebo controlled, third party blind study, multiple doses of 100 mg BID, 200 mg BID, 400 mg BID, 400 mg TID, and 600 mg TID of compound of Formula Ia or placebo in a 3:1 ratio with or without food were evaluated. […]
Serial HCV-RNA data were evaluated for antiviral activity and for the change from baseline in the serum HCV RNA levels.

[3] = Example 2: food-effect crossover study, 600 mg single dose, healthy adult subjects; format: in vivo, human
Description: This was a randomized, open-label, single-dose, two-treatment (fed or fasted), two-period, two-sequence crossover study of the effect of food on the bioavailability of compound of Formula Ia in 23 healthy adult male and female subjects. The primary pharmacokinetic parameters were AUC(I) and Cmax for compound of Formula Ia. The study included a 7-day wash-out period between treatment periods.
Subjects were confined at the study site at least 14 hours prior to each treatment (Day-1). On the morning of Day 1, following a 10-hour overnight fast, subjects were randomized to receive in a particular order Treatment A and Treatment B: • Treatment A: compound of Formula Ia 600 mg (6×100 mg capsules) PO following an overnight fast. • Treatment B: compound of Formula Ia 600 mg (6×100 mg capsules) PO within 20 minutes following the completion of a standard high-fat breakfast. There was a 7-day wash-out period between receiving treatments.
Subjects receiving Treatment A received a formulation of compound of Formula Ia comprised of compound of Formula Ia and a pharmaceutically acceptable carrier, such as microcrystalline cellulose, while continuing to fast, while subjects randomized to Treatment B consumed a standardized high-fat meal prior to compound administration (within 20 minutes prior to the compound administration). The capsules along with approximately 240 mL of water were swallowed whole, not chewed or crushed. […] Water was permitted as desired except for 1 hour before and after compound administration. A washout period of at least 7 days separated the two treatment periods. Upon return to the clinic, subjects underwent the same procedures as the first period and continued the randomization sequence (subjects who received compound of Formula Ia fasted in Period 1 and then received compound of Formula Ia under fed conditions in Period 2, and vice versa).
Blood samples (7 mL each) for the determination of compound of Formula Ia levels were drawn immediately prior to dosing (0 hour), and at 0.5, 1, 1.5, 2, 2.5, 3, 4, 5, 6, 8, 12, 24, 36, and 48 hours after dosing. The blood samples were collected into tubes containing EDTA. The samples were centrifuged at 1500 g for 10 minutes to obtain plasma and the plasma samples were frozen at −20° C. and maintained in the frozen state until assayed.
Plasma concentrations of compound of Formula Ia were determined using a validated liquid chromatography tandem mass spectrometry (LC-MS/MS) method. The assay lower limit of quantitation (LLOQ) was 0.50 ng/mL and the method was validated over the concentration range of 0.50 to 1000 ng/mL.
The mean and percent coefficient of variation (% CV) were calculated for plasma concentrations of compound of Formula Ia at each time point. Concentration values less than the assay LLOQ were reported as, and set to zero in the tables and calculations. The plasma concentration-time data for compound of Formula Ia were subjected to pharmacokinetic analysis by noncompartmental methods using WinNonlin software. Nominal sampling times were used for pharmacokinetic analysis, since none of the pharmacokinetic sampling time deviations were >10% of the nominal times. For each subject, the following pharmacokinetic parameters were determined for compound of Formula Ia: maximum plasma concentration (Cmax), time of maximum observed plasma concentration (Tmax), the final quantifiable sampling time (tf), area under the plasma concentration-time curve from time 0 to tf (AUC[tf]), AUC(I) (AUC[tf]+C[tf]estimated/K) and Vd/F. The K and C(tf)estimated are defined as terminal elimination rate constant and estimated concentration at final quantifiable sample, respectively. Terminal phase half-life (t½=In2/K) and apparent clearance (CL/F=Dose/AUC[I]) were also determined. Cmax, Tmax and tf were the observed values. […]

## CC(C)(C)NC(=O)N[C@H](C(=O)N1C[C@H]2[C@@H]([C@H]1C(=O)NC(CC1CCC1)C(=O)C(N)=O)C2(C)C)C(C)(C)C (mixture of isomers) [Formula Ia, (1R,5S)-N-[3-Amino-1-(Cyclobutylmethyl)-2,3-Dioxopropyl]-3-[2(S)-[[[(1,1-Dimethylethyl)Amino]Carbonyl]Amino]-3,3-Dimethyl-1-Oxobutyl]-6,6-Dimethyl-3-Azabicyclo[3.1.0]Hexan-2(S)-Carboxamide]
[1]
  virus level in serum: < 100 copies/ml
[2]; 100 mg BID, 200 mg BID, 400 mg BID, all subjects
  dose dependence of antiviral activity: antiviral activity increased in a dose-related manner
[2]; 14 days, genotype 1 interferon non responders
  viral load reduction from baseline, average minimum reduction: 2 logs
[3]; 600 mg oral
  apparent mean Vd/F, fed versus fasted (times lower): about five
[3]; 600 mg oral dose, fed and fasted states
  safety profile: low frequency of treatment emergent and treatment related AEs
[3]; 600 mg single oral dose
  delay of median Tmax, fed versus fasted: approximately three
  median concentration at 8 hours, fed relative to fasted: more than 4 fold
  median concentration at 12 hours, fed relative to fasted: 2 fold
[3]; 600 mg single oral dose, fed, mean, n=19
  AUC(I): 3697 ng·h/mL
[3]; 600 mg, female, n=10
  AUC(l) ratio estimate, fed to fasted: 225%
  AUC(tf) ratio estimate, fed to fasted: 229%
  Cmax ratio estimate, fed to fasted: 170%
[3]; 600 mg, high-fat meal relative to fasted
  increase of relative (oral) bioavailability (AUC) in the fed state: over 100%
[3]; 600 mg, male, n=10
  AUC(l) ratio estimate, fed to fasted: 202%
  AUC(tf) ratio estimate, fed to fasted: 205%
  Cmax ratio estimate, fed to fasted: 155%
[3]; 600 mg, n=20
  AUC(l) ratio estimate, fed to fasted: 214%
  AUC(tf) ratio estimate, fed to fasted: 217%
  Cmax ratio estimate, fed to fasted: 162%
[3]; in 12 of the 20 subjects who completed both periods
  absorption lag time in the fed state vs the fasted state: > 0.5 h
